Series [1] relates to Hepatotoxicity.
In series [2] the test system is Hepatotoxicity. This is another data set of the same source.
Series [3] deals with Hepatotoxicity. This is another data set of the same source.
For series [4], the system named is Hepatotoxicity. This is another data set of the same source.
Series [5] concerns Hepatotoxicity. The source holds these as a separate data set.
Series [6] relates to Hepatotoxicity. This is another data set of the same source.
The test system of series [7] is Hepatotoxicity. The source holds these as a separate data set.
The test system of series [8] is Hepatotoxicity. The source holds these as a separate data set.
Series [9] has as its system Hepatotoxicity. The source holds these as a separate data set.
The subject of series [10] is Hepatotoxicity. This is another data set of the same source.
Series [11] concerns Hepatotoxicity. The source holds these as a separate data set.
For series [12], the system named is Hepatotoxicity. This is another data set of the same source.
In series [13] the test system is Hepatotoxicity. This is another data set of the same source.
Series [14] relates to Hepatotoxicity. This is another data set of the same source.

The structures appear in SMILES notation. *1 amine or outer side, *2 acyl side, *3 side chain or, on linkers, in order; H or OH if unused. Where a SMILES comes first, the peptide text is derived from it. Bridges are numbered along the chain shown (N, C = ends). [ ]: non-standard residue; d: D form. The star is where a group is joined. pTerphenylCO(4''-OnC5H11) = CCCCCOc1ccc(-c2ccc(-c3ccc(C(=O)*)cc3)cc2)cc1; Orn(4R-OH,5R-OH) = O=C([C@H](C[C@@H](O)[C@@H](O)N[*:3])N[*:1])[*:2]; hTyr(3S-OH,4S-OH) = N[C@H](C(=O)O)[C@H](O)[C@@H](O)c1ccc(O)cc1; Pro(3S-OH,4S-Me) = C[C@H]1CN[C@H](C(=O)O)[C@H]1O; Hyp = O=C(O)[C@@H]1C[C@@H](O)CN1
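Wherever HepSE Combined Scores is given: combined hepatic side effect score as listed in the training data of the Drug Induced Liver Injury Prediction System (DILIps).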
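Wherever HepSE bilirubinemia is given: bilirubinemia hepatic side effect score drawn from the DILIps training data, a prediction system for drug-induced liver injury; call rule not given here.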
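Wherever HepSE cholecystitis is given: Cholecystitis-related hepatic side effect score drawn from the DILIps (drug-induced liver injury prediction) training data set; call rule not given here.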
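Wherever HepSE cholelithiasis is given: hepatic side effect score for cholelithiasis, drawn from the DILIps training data for predicting drug-induced liver injury; call rule not given here.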
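Wherever HepSE cirrhosis is given: cirrhosis hepatic side effect score taken from the DILIps (drug-induced liver injury prediction) training set; call rule not given here.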
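Wherever HepSE elevated liver function tests is given: hepatic side effect score for raised liver function tests, as recorded in the DILIps training set used for predicting drug-induced liver injury.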
Wherever HepSE hepatic failure is given: call rule not given here.
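Wherever HepSE hepatic necrosis is given: score of hepatic side effects for hepatic necrosis, drawn from the training data of DILIps, a prediction system for drug-induced liver injury; call rule not given here.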
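Wherever HepSE hepatitis is given: Hepatitis-related hepatic side effect score taken from the training data of DILIps, a prediction system for drug-induced liver injury; call rule not given here.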
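Wherever HepSE hepatomegaly is given: hepatic side effect score for hepatomegaly, taken from the training set of the DILIps drug-induced liver injury prediction system; call rule not given here.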
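Wherever HepSE jaundice is given: Jaundice-related hepatic side-effect score drawn from the training data of the DILIps (drug-induced liver injury prediction system); call rule not given here.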
Wherever HepSE liver disease is given: call rule not given here.
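Wherever HepSE liver fatty is given: hepatic side effect score for fatty liver, taken from the DILIps training set for predicting drug-induced liver injury; call rule not given here.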
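Wherever HepSE liver function tests abnormal is given: hepatic side effect score taken from the DILIps (drug-induced liver injury prediction system) training data, here covering abnormal liver function test findings.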

With `CC1(C)S[C@@H]2[C@H](NC(=O)[C@H](N)c3ccc(O)cc3)C(=O)N2[C@H]1C(=O)O` [AMOXICILLIN], in the series on Hepatotoxicity [1], the HepSE_hepatic failure stood at 0. In the series on Hepatotoxicity [2], this compound had a HepSE_liver fatty of 0. The same compound displayed a HepSE_cholecystitis with Hepatotoxicity [3] of 0. The compound also registered a HepSE_liver disease in the series on Hepatotoxicity [4] of 0. For the same compound, in the series with Hepatotoxicity [5], the HepSE_bilirubinemia came to 0. In the series on Hepatotoxicity [6], this compound displayed a HepSE_hepatitis of 1. Also, the HepSE_hepatomegaly with Hepatotoxicity [7] stood at 0. Also, in the series on Hepatotoxicity [8], the HepSE_hepatic necrosis came out at 0. For the same compound, the “HepSE_liver function tests abnormal” value with Hepatotoxicity [9] is 0. Besides, the HepSE_cirrhosis in the series on Hepatotoxicity [10] stood at 0. Also, in the series on Hepatotoxicity [11], the “HepSE_Combined Scores” value was 2. Further, the HepSE_cholelithiasis in the series with Hepatotoxicity [12] came out at 0. The same compound gave a HepSE_jaundice in the series with Hepatotoxicity [13] of 1. Moreover, in the series on Hepatotoxicity [14], the “HepSE_elevated liver function tests” value was 0.

With `CC(N)Cc1ccccc1` (stereo unspecified) [AMPHETAMINE], the HepSE_hepatic failure with Hepatotoxicity [1] was 0. This compound also came in with a HepSE_liver fatty in the series on Hepatotoxicity [2] of 0. Besides, the HepSE_cholecystitis with Hepatotoxicity [3] is listed as 0. The HepSE_liver disease in the series with Hepatotoxicity [4] is recorded as 0. This compound had a HepSE_bilirubinemia with Hepatotoxicity [5] of 0. In the series on Hepatotoxicity [6], this compound registered a HepSE_hepatitis of 0. The same compound gave a HepSE_hepatomegaly in the series on Hepatotoxicity [7] of 0. The compound also gave a HepSE_hepatic necrosis in the series with Hepatotoxicity [8] of 0. Further, in the series with Hepatotoxicity [9], the “HepSE_liver function tests abnormal” value was found to be 0. The HepSE_cirrhosis with Hepatotoxicity [10] came to 0. In the series on Hepatotoxicity [11], the “HepSE_Combined Scores” value was 0. This compound came in with a HepSE_cholelithiasis in the series on Hepatotoxicity [12] of 0. For the same compound, in the series on Hepatotoxicity [13], the HepSE_jaundice is 0. Besides, in the series with Hepatotoxicity [14], the “HepSE_elevated liver function tests” value was found to be 0.

As to `C[C@@H]1[C@H](O)[C@@H](C)/C=C/C=C/C=C/C=C/C=C/C=C/C=C/[C@H](O[C@@H]2O[C@H](C)[C@@H](O)[C@H](N)[C@@H]2O)C[C@@H]2O[C@](O)(C[C@@H](O)C[C@@H](O)[C@H](O)CC[C@@H](O)C[C@@H](O)CC(=O)O[C@H]1C)C[C@H](O)[C@H]2C(=O)O` [AMPHOTERICIN B], in the series on Hepatotoxicity [1], the HepSE_hepatic failure amounted to 1. Moreover, the HepSE_liver fatty in the series on Hepatotoxicity [2] amounted to 0. The compound also had a HepSE_cholecystitis in the series with Hepatotoxicity [3] of 0. In the series on Hepatotoxicity [4], this compound displayed a HepSE_liver disease of 1. In the series with Hepatotoxicity [5], the HepSE_bilirubinemia was 1. The compound further came in with a HepSE_hepatitis with Hepatotoxicity [6] of 1. This compound had a HepSE_hepatomegaly in the series on Hepatotoxicity [7] of 1. Further, the HepSE_hepatic necrosis in the series with Hepatotoxicity [8] came out at 0. For the same compound, the “HepSE_liver function tests abnormal” value in the series with Hepatotoxicity [9] turned out to be 1. The compound also registered a HepSE_cirrhosis in the series on Hepatotoxicity [10] of 0. The “HepSE_Combined Scores” value with Hepatotoxicity [11] is 7. This compound yielded a HepSE_cholelithiasis in the series on Hepatotoxicity [12] of 0. Also, the HepSE_jaundice with Hepatotoxicity [13] is on record as 1. In addition, the “HepSE_elevated liver function tests” value in the series with Hepatotoxicity [14] turned out to be 0.

In the series on Hepatotoxicity [1], `CC1(C)S[C@@H]2[C@H](NC(=O)[C@H](N)c3ccccc3)C(=O)N2[C@H]1C(=O)O` [AMPICILLIN] showed a HepSE_hepatic failure of 0. Further, the HepSE_liver fatty in the series with Hepatotoxicity [2] worked out at 0. The compound also registered a HepSE_cholecystitis in the series on Hepatotoxicity [3] of 0. Further, the HepSE_liver disease in the series with Hepatotoxicity [4] came out at 0. In the series with Hepatotoxicity [5], this compound gave a HepSE_bilirubinemia of 0. In addition, the HepSE_hepatitis with Hepatotoxicity [6] is 0. In the series on Hepatotoxicity [7], this compound had a HepSE_hepatomegaly of 0. In the series with Hepatotoxicity [8], this compound displayed a HepSE_hepatic necrosis of 0. Moreover, the “HepSE_liver function tests abnormal” value in the series on Hepatotoxicity [9] stood at 0. Further, in the series on Hepatotoxicity [10], the HepSE_cirrhosis came out at 0. Further, in the series on Hepatotoxicity [11], the “HepSE_Combined Scores” value is listed as 0. This compound yielded a HepSE_cholelithiasis with Hepatotoxicity [12] of 0. The compound further gave a HepSE_jaundice with Hepatotoxicity [13] of 0. The “HepSE_elevated liver function tests” value in the series with Hepatotoxicity [14] was 0.

Compound `COc1cc(NS(C)(=O)=O)ccc1Nc1c2ccccc2nc2ccccc12` [AMSACRINE] had a HepSE_hepatic failure with Hepatotoxicity [1] of 1. The compound also came in with a HepSE_liver fatty in the series with Hepatotoxicity [2] of 0. The HepSE_cholecystitis in the series with Hepatotoxicity [3] was 0. The same compound showed a HepSE_liver disease in the series on Hepatotoxicity [4] of 0. This compound also returned a HepSE_bilirubinemia in the series with Hepatotoxicity [5] of 0. Further, the HepSE_hepatitis with Hepatotoxicity [6] came out at 1. The compound further came in with a HepSE_hepatomegaly in the series on Hepatotoxicity [7] of 0. Besides, the HepSE_hepatic necrosis in the series on Hepatotoxicity [8] is given as 0. Also, the “HepSE_liver function tests abnormal” value in the series with Hepatotoxicity [9] came to 0. The HepSE_cirrhosis in the series with Hepatotoxicity [10] was determined as 0. Besides, the “HepSE_Combined Scores” value in the series with Hepatotoxicity [11] came to 3. For the same compound, in the series with Hepatotoxicity [12], the HepSE_cholelithiasis stood at 0. In the series on Hepatotoxicity [13], the HepSE_jaundice is 1. In addition, in the series on Hepatotoxicity [14], the “HepSE_elevated liver function tests” value came out at 0.

Compound `O=C1CN2Cc3c(ccc(Cl)c3Cl)N=C2N1` [ANAGRELIDE] came in with a HepSE_hepatic failure in the series with Hepatotoxicity [1] of 0. The HepSE_liver fatty in the series with Hepatotoxicity [2] is reported as 0. Besides, the HepSE_cholecystitis in the series with Hepatotoxicity [3] was determined as 0. The compound also gave a HepSE_liver disease with Hepatotoxicity [4] of 0. The compound also had a HepSE_bilirubinemia in the series on Hepatotoxicity [5] of 0. This compound also registered a HepSE_hepatitis in the series with Hepatotoxicity [6] of 0. This compound also had a HepSE_hepatomegaly in the series with Hepatotoxicity [7] of 0. The same compound displayed a HepSE_hepatic necrosis in the series with Hepatotoxicity [8] of 0. Moreover, the “HepSE_liver function tests abnormal” value in the series on Hepatotoxicity [9] is listed as 0. In the series on Hepatotoxicity [10], this compound registered a HepSE_cirrhosis of 0. The “HepSE_Combined Scores” value with Hepatotoxicity [11] was 1. The compound further gave a HepSE_cholelithiasis with Hepatotoxicity [12] of 0. The same compound had a HepSE_jaundice with Hepatotoxicity [13] of 0. The “HepSE_elevated liver function tests” value in the series with Hepatotoxicity [14] is listed as 1.

In the series with Hepatotoxicity [1], `CC(C)(C#N)c1cc(Cn2cncn2)cc(C(C)(C)C#N)c1` [ANASTROZOLE] showed a HepSE_hepatic failure of 0. In the series with Hepatotoxicity [2], this compound yielded a HepSE_liver fatty of 0. The HepSE_cholecystitis in the series with Hepatotoxicity [3] is recorded as 0. The same compound had a HepSE_liver disease in the series with Hepatotoxicity [4] of 0. Also, in the series on Hepatotoxicity [5], the HepSE_bilirubinemia is on record as 0. For the same compound, in the series on Hepatotoxicity [6], the HepSE_hepatitis turned out to be 1. Besides, the HepSE_hepatomegaly with Hepatotoxicity [7] came to 0. Besides, the HepSE_hepatic necrosis in the series with Hepatotoxicity [8] came to 0. Besides, in the series on Hepatotoxicity [9], the “HepSE_liver function tests abnormal” value worked out at 0. Also, the HepSE_cirrhosis in the series with Hepatotoxicity [10] came to 0. Further, in the series with Hepatotoxicity [11], the “HepSE_Combined Scores” value came out at 2. This compound also yielded a HepSE_cholelithiasis in the series with Hepatotoxicity [12] of 0. The compound further had a HepSE_jaundice in the series on Hepatotoxicity [13] of 0. In the series on Hepatotoxicity [14], the “HepSE_elevated liver function tests” value turned out to be 1.

`CCCCCOc1ccc(-c2ccc(-c3ccc(C(=O)N[C@H]4C[C@@H](O)[C@@H](O)NC(=O)[C@@H]5[C@@H](O)[C@@H](C)CN5C(=O)[C@H]([C@@H](C)O)NC(=O)[C@H]([C@H](O)[C@@H](O)c5ccc(O)cc5)NC(=O)[C@@H]5C[C@@H](O)CN5C(=O)[C@H]([C@@H](C)O)NC4=O)cc3)cc2)cc1` [ANIDULAFUNGIN] ({pTerphenylCO(4''-OnC5H11)}-[Orn(4R-OH,5R-OH)]T[Hyp][hTyr(3S-OH,4S-OH)]T[Pro(3S-OH,4S-Me)]; lactam 1-C) registered a HepSE_hepatic failure in the series with Hepatotoxicity [1] of 0. This compound also gave a HepSE_liver fatty in the series with Hepatotoxicity [2] of 0. The same compound gave a HepSE_cholecystitis in the series with Hepatotoxicity [3] of 0. Besides, the HepSE_liver disease in the series on Hepatotoxicity [4] is listed as 0. In addition, the HepSE_bilirubinemia in the series with Hepatotoxicity [5] stood at 0. Besides, the HepSE_hepatitis with Hepatotoxicity [6] is 0. Moreover, the HepSE_hepatomegaly in the series with Hepatotoxicity [7] was 0. Also, the HepSE_hepatic necrosis in the series with Hepatotoxicity [8] amounted to 1. The “HepSE_liver function tests abnormal” value with Hepatotoxicity [9] amounted to 1. In the series on Hepatotoxicity [10], this compound came in with a HepSE_cirrhosis of 0. Further, the “HepSE_Combined Scores” value in the series with Hepatotoxicity [11] stood at 2. Moreover, the HepSE_cholelithiasis with Hepatotoxicity [12] is 0. In the series on Hepatotoxicity [13], this compound yielded a HepSE_jaundice of 0. Also, the “HepSE_elevated liver function tests” value with Hepatotoxicity [14] worked out at 0.

In turn, `CN1CCc2cccc3c2[C@H]1Cc1ccc(O)c(O)c1-3` [APOMORPHINE] registered a HepSE_hepatic failure with Hepatotoxicity [1] of 0. Moreover, the HepSE_liver fatty with Hepatotoxicity [2] was 0. The compound further registered a HepSE_cholecystitis in the series on Hepatotoxicity [3] of 0. In the series on Hepatotoxicity [4], this compound showed a HepSE_liver disease of 0. This compound also gave a HepSE_bilirubinemia with Hepatotoxicity [5] of 0. The compound further gave a HepSE_hepatitis in the series with Hepatotoxicity [6] of 0. This compound also displayed a HepSE_hepatomegaly with Hepatotoxicity [7] of 0. The same compound returned a HepSE_hepatic necrosis in the series on Hepatotoxicity [8] of 0. The “HepSE_liver function tests abnormal” value with Hepatotoxicity [9] stood at 0. This compound also showed a HepSE_cirrhosis in the series on Hepatotoxicity [10] of 0. Also, the “HepSE_Combined Scores” value with Hepatotoxicity [11] is listed as 0. The compound also showed a HepSE_cholelithiasis with Hepatotoxicity [12] of 0. For the same compound, the HepSE_jaundice with Hepatotoxicity [13] worked out at 0. The “HepSE_elevated liver function tests” value with Hepatotoxicity [14] amounted to 0.

The values are drawn from ChEMBL document CHEMBL1909294, “Translating clinical findings into knowledge in drug safety evaluation--drug induced liver injury prediction system (DILIps)” (PLoS Comput Biol, 2011).
